Our source for the IC50 and EC50 values is patent US20250129069A1, “TRIAZOLO WRN INHIBITORS” (Nimbus Wadjet, Inc., priority 2023, published 2025).

Assay [1] addresses human Werner helicase (WRN, amino acids 517-1235 with L1074F point mutation) (Homo sapiens (Human), UniProt Q14191, L1074F). The experiment in a line: WRN (BV08) ADP-Glo assay. The class given is biochemical. The following applies: human WRN (aa 517-1235, L1074F), read-out: ADP-Glo_hWRN_IC50. In outline: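 ADP-Glo luminescence read after 60 min, 25 °C reaction of 0.15 nM WRN (517-1235, L1074F, Sf9-expressed, tag removed) with 0.1 nM DNA duplex and 5 μM ATP, following 15 min compound preincubation; 20 mM Bicine pH 7.5, 1% DMSO. IC50 from 3- or 4-parameter fit of % inhibition.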
(In general: In ADP-Glo the light output rises with the ADP produced.)

Assay [2] concerns p21 induction in HCT 116 cells. The experiment in a line: p21 induction in cells (In-Cell Western, p21/GAPDH ratio). The settings on record: 24 h compound incubation, read-out: p21_EC50. The class given is cell-based. The procedure, abridged: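 EC50 values come from nonlinear fits of percent activation, defined by the 800/700 nm p21-to-GAPDH ratio scaled between DMSO (low) and internal WRN inhibitor (high) controls. In-Cell Western read after 24 h compound exposure of HCT 116 cells at 37° C. Duplicate 11-point series, 2-fold steps, usually starting at 10 μM.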

Read-outs that look alike come from different tables or passages of the source.

Sequence of human Werner helicase (WRN, amino acids 517-1235 with L1074F point mutation) (Q14191 other isoform, or with tags, fused parts or gaps L1074F (already in the parent)): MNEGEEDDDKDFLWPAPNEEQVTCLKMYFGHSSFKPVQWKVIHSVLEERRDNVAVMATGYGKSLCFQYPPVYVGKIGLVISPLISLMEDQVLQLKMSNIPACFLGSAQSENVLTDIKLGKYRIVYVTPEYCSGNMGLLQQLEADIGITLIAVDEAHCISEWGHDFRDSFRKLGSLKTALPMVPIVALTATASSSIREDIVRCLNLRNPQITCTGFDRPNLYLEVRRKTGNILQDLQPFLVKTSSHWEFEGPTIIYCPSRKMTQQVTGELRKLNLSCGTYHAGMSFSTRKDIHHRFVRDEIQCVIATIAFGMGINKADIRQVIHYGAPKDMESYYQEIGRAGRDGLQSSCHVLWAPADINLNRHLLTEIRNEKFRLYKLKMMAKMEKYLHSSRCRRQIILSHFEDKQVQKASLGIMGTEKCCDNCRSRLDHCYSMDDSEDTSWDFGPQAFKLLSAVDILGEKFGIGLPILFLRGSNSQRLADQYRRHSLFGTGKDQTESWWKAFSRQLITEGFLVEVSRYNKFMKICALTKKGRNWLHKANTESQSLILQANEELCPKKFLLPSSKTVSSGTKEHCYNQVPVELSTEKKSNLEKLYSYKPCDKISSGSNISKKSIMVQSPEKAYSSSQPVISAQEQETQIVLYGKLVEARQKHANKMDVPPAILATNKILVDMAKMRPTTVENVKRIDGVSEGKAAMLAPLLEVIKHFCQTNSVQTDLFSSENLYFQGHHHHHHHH

For `CCc1c(N2CCN(C(=O)c3c(OC)ncc(C)c3O)CC2)c(=O)c2nn(-c3ccnc(OC)c3)nc2n1CC(=O)NC12CC(C(C)C)(C1)C2` [Compound I-114, 2-{5-ethyl-6-[4-(4-hydroxy-2-methoxy-5-methylpyridine-3-carbonyl)piperazin-1-yl]-2-(2-methoxypyridin-4-yl)-7-oxo-2H,4H,7H-[1,2,3]triazolo[4,5-b]pyridin-4-yl}-N-[3-(propan-2-yl)bicyclo[1.1.1]pentan-1-yl]acetamide], the IC50 in assay [1] was 5 to 50 nM. For the same compound, the EC50 in assay [2] (Homo sapiens) was not above 500 nM.
The corresponding values for `CCc1c(N2CCN(C(=O)c3ncnc(C)c3O)[C@H]3CC[C@@H]32)c(=O)c2nn(-c3ccnc(OC)c3)nc2n1CC(=O)Nc1ccc(C(F)F)cc1F` [Compound I-83, N-[4-(difluoromethyl)-2-fluorophenyl]-2-{5-ethyl-6-[(1S,6S)-5-(5-hydroxy-6-methylpyrimidine-4-carbonyl)-2,5-diazabicyclo[4.2.0]octan-2-yl]-2-(2-methoxypyridin-4-yl)-7-oxo-2H,4H,7H-[1,2,3]triazolo[4,5-b]pyridin-4-yl}acetamide] are not above 5 nM and not above 500 nM.
For `CCc1c(N2CCN(C(=O)c3c(O)ccc4ncoc34)CC2)c(=O)c2nn(-c3ccnc(OC)c3)nc2n1CC(=O)NC12CC(C(F)(F)F)(C1)C2` [Compound I-3, 2-(5-ethyl-6-(4-(6-hydroxybenzo[d]oxazole-7-carbonyl)piperazin-1-yl)-2-(2-methoxypyridin-4-yl)-7-oxo-2,7-dihydro-4H-[1,2,3]triazolo[4,5-b]pyridin-4-yl)-N-(3-(trifluoromethyl)bicyclo[1.1.1]pentan-1-yl)acetamide], the IC50 in assay [1] fell in the range of 5 to 50 nM. The EC50 in assay [2] is not above 500 nM.
In the case of `CCc1c(N2CCN(C(=O)c3c(OC)ncc(C)c3O)CC2)c(=O)c2nn(-c3ccnc(OC)c3)nc2n1CC(=O)NC12CC(C(F)(F)F)(C1)C2` [Compound I-128, 2-{5-ethyl-6-[4-(4-hydroxy-2-methoxy-5-methylpyridine-3-carbonyl)piperazin-1-yl]-2-(2-methoxypyridin-4-yl)-7-oxo-2H,4H,7H-[1,2,3]triazolo[4,5-b]pyridin-4-yl}-N-[3-(trifluoromethyl)bicyclo[1.1.1]pentan-1-yl]acetamide], the IC50 in assay [1] was 5 to 50 nM. In addition, in assay [2] (Homo sapiens), the EC50 is not above 500 nM.
On to `CCc1c(N2CCN(C(=O)c3c(OC)ncc(C)c3O)[C@H]3CC[C@@H]32)c(=O)c2nn(C3=CCOCC3)nc2n1CC(=O)NC12CC(C(C)C)(C1)C2` [Compound I-92, 2-[2-(3,6-dihydro-2H-pyran-4-yl)-5-ethyl-6-[(1S,6S)-5-(4-hydroxy-2-methoxy-5-methylpyridine-3-carbonyl)-2,5-diazabicyclo[4.2.0]octan-2-yl]-7-oxo-2H,4H,7H-[1,2,3]triazolo[4,5-b]pyridin-4-yl]-N-[3-(propan-2-yl)bicyclo[1.1.1]pentan-1-yl]acetamide], for which, in assay [1], the IC50 is 5 to 50 nM. The EC50 in assay [2] was not above 500 nM.
With `CCc1c(N2CCN(C(=O)c3ncnc(C)c3O)[C@H]3CC[C@@H]32)c(=O)c2nn(-c3ccnc(OC)c3)nc2n1CC(=O)NC12CC(C3CC3)(C1)C2` [Compound I-10, N-(3-cyclopropylbicyclo[1.1.1]pentan-1-yl)-2-(5-ethyl-6-((1S,6S)-5-(5-hydroxy-6-methylpyrimidine-4-carbonyl)-2,5-diazabicyclo[4.2.0]octan-2-yl)-2-(2-methoxypyridin-4-yl)-7-oxo-2,7-dihydro-4H-[1,2,3]triazolo[4,5-b]pyridin-4-yl)acetamide], the IC50 in assay [1] fell in the range of 5 to 50 nM. Moreover, the EC50 in assay [2] (Homo sapiens) is not above 500 nM.
For `CCc1c(N2CCN(C(=O)c3ncnc(C)c3O)[C@H]3CC[C@@H]32)c(=O)c2nn(-c3ccnc(C)c3)nc2n1CC(=O)NC12CC(C3CC3)(C1)C2` [Compound I-19, N-(3-cyclopropylbicyclo[1.1.1]pentan-1-yl)-2-(5-ethyl-6-((1S,6S)-5-(5-hydroxy-6-methylpyrimidine-4-carbonyl)-2,5-diazabicyclo[4.2.0]octan-2-yl)-2-(2-methylpyridin-4-yl)-7-oxo-2,7-dihydro-4H-[1,2,3]triazolo[4,5-b]pyridin-4-yl)acetamide], in that order: 5 to 50 nM and not above 500 nM.
Turning to `CCc1c(N2CCN(C(=O)c3ncnc(C)c3O)[C@H]3CC[C@@H]32)c(=O)c2nn(-c3ccnc(OC)c3)nc2n1CC(=O)NC1CC2(C1)CC(F)(F)C2` [Compound I-70, N-{6,6-difluorospiro[3.3]heptan-2-yl}-2-{5-ethyl-6-[(1S,6S)-5-(5-hydroxy-6-methylpyrimidine-4-carbonyl)-2,5-diazabicyclo[4.2.0]octan-2-yl]-2-(2-methoxypyridin-4-yl)-7-oxo-2H,4H,7H-[1,2,3]triazolo[4,5-b]pyridin-4-yl}acetamide], the IC50 in assay [1] is 5 to 50 nM. The EC50 in assay [2] (Homo sapiens) was in the range of 500 to 2000 nM.
Consider `CCc1c(N2CCN(C(=O)c3cc(N4CCC(C)(O)C4)cnc3OC)[C@H]3CC[C@@H]32)c(=O)c2nn(C3=CCOCC3)nc2n1CC(=O)NC12CC(C3CC3)(C1)C2` (stereo partly drawn) [Compound I-186, N-{3-cyclopropylbicyclo[1.1.1]pentan-1-yl}-2-[2-(3,6-dihydro-2H-pyran-4-yl)-5-ethyl-6-[(1S,6S)-5-[5-(3-hydroxy-3-methylpyrrolidin-1-yl)-2-methoxypyridine-3-carbonyl]-2,5-diazabicyclo[4.2.0]octan-2-yl]-7-oxo-2H,4H,7H-[1,2,3]triazolo[4,5-b]pyridin-4-yl]acetamide], for which the IC50 in assay [1] was in the range of 5 to 50 nM. For the same compound, the EC50 in assay [2] (Homo sapiens) lay in the range of 500 to 2000 nM.
As for `CCc1c(N2CCN(C(=O)c3ncnc(C)c3O)[C@H]3CC[C@@H]32)c(=O)c2nn(-c3cnn(C4CC4)c3)nc2n1CC(=O)NC12CC(C(C)C)(C1)C2` [Compound I-25, 2-(2-(1-cyclopropyl-1H-pyrazol-4-yl)-5-ethyl-6-((1S,6S)-5-(5-hydroxy-6-methylpyrimidine-4-carbonyl)-2,5-diazabicyclo[4.2.0]octan-2-yl)-7-oxo-2,7-dihydro-4H-[1,2,3]triazolo[4,5-b]pyridin-4-yl)-N-(3-isopropylbicyclo[1.1.1]pentan-1-yl)acetamide], the IC50 in assay [1] fell in the range of 5 to 50 nM. In addition, in assay [2] (Homo sapiens), the EC50 is not above 500 nM.
The corresponding values for `CCc1c(N2CCN(C(=O)c3cn(C)nc3OC)[C@H]3CC[C@@H]32)c(=O)c2nn(C3=CCOCC3)nc2n1CC(=O)NC12CC(C(C)C)(C1)C2` [Compound I-209, 2-[2-(3,6-dihydro-2H-pyran-4-yl)-5-ethyl-6-[(1S,6S)-5-(3-methoxy-1-methyl-1H-pyrazole-4-carbonyl)-2,5-diazabicyclo[4.2.0]octan-2-yl]-7-oxo-2H,4H,7H-[1,2,3]triazolo[4,5-b]pyridin-4-yl]-N-[3-(propan-2-yl)bicyclo[1.1.1]pentan-1-yl]acetamide] are 5 to 50 nM and 500 to 2000 nM.
The corresponding values for `CCc1c(N2CCN(C(=O)c3ncnc(C)c3O)[C@H]3CC[C@@H]32)c(=O)c2nn(C3=CCOCC3)nc2n1CC(=O)Nc1ccc(C(F)(F)F)cc1F` [Compound I-12, 2-(2-(3,6-dihydro-2H-pyran-4-yl)-5-ethyl-6-((1S,6S)-5-(5-hydroxy-6-methylpyrimidine-4-carbonyl)-2,5-diazabicyclo[4.2.0]octan-2-yl)-7-oxo-2,7-dihydro-4H-[1,2,3]triazolo[4,5-b]pyridin-4-yl)-N-(2-fluoro-4-(trifluoromethyl)phenyl)acetamide] are not above 5 nM and not above 500 nM.
For the compound `CCc1c(N2CCN(C(=O)c3cccc4ccoc34)[C@H]3CC[C@@H]32)c(=O)c2nn(-c3ccnc(OC)c3)nc2n1CC(=O)Nc1ccc(C(F)(F)F)cc1Cl` [Compound I-119, 2-{6-[(1S,6S)-5-(1-benzofuran-7-carbonyl)-2,5-diazabicyclo[4.2.0]octan-2-yl]-5-ethyl-2-(2-methoxypyridin-4-yl)-7-oxo-2H,4H,7H-[1,2,3]triazolo[4,5-b]pyridin-4-yl}-N-[2-chloro-4-(trifluoromethyl)phenyl]acetamide], in assay [1], the IC50 lay in the range of 5 to 50 nM. For the same compound, the EC50 in assay [2] (Homo sapiens) was more than 5000 nM.
As to `CCc1c(N2CCN(C(=O)c3c(OC)ncc(C)c3O)CC2)c(=O)c2nn(-c3ccnc(C)c3)nc2n1CC(=O)NC12CC(C(C)C)(C1)C2` [Compound I-130, 2-{5-ethyl-6-[4-(4-hydroxy-2-methoxy-5-methylpyridine-3-carbonyl)piperazin-1-yl]-2-(2-methylpyridin-4-yl)-7-oxo-2H,4H,7H-[1,2,3]triazolo[4,5-b]pyridin-4-yl}-N-[3-(propan-2-yl)bicyclo[1.1.1]pentan-1-yl]acetamide], in assay [1], the IC50 was in the range of 5 to 50 nM. The EC50 in assay [2] (Homo sapiens) was not above 500 nM.
As to `CCc1c(N2CCN(C(=O)c3ncnc(C)c3O)[C@H]3CC[C@@H]32)c(=O)c2nn(-c3cnn(C4CC4)c3)nc2n1CC(=O)NC12CC(C(C)C)(C1)C2` [Compound I-58, 2-[2-(1-cyclopropyl-1H-pyrazol-4-yl)-5-ethyl-6-[(1S,6S)-5-(5-hydroxy-6-methylpyrimidine-4-carbonyl)-2,5-diazabicyclo[4.2.0]octan-2-yl]-7-oxo-2H,4H,7H-[1,2,3]triazolo[4,5-b]pyridin-4-yl]-N-[3-(propan-2-yl)bicyclo[1.1.1]pentan-1-yl]acetamide], in assay [1], the IC50 lay within 5 to 50 nM. Further, the EC50 in assay [2] is not above 500 nM.
